This note sets out measurements from patent US11739101B2, “Bifunctional degraders of hematopoietic progenitor kinase and therapeutic uses thereof” (Nurix Therapeutics, Inc., priority 2020, dated 2023).

The target of this assay is T1, HPK1 (Homo sapiens, UniProt Q92918).
T1 construct: A HiBiT tag was introduced by CRISPR on the N terminus of HPK1 in Jurkat cells; host or cells: Jurkat (ATCC TIB-152), monoclonal CRISPR HiBiT knock-in line
Nature of the assay: HPK1 Cellular HiBiT Degradation Assay. The assay is classed as cell-based. The settings on record: HiBiT-tagged HPK1 Jurkat cells, 24 hours, 10 uM to 0.1 nM; Dmax = 100 minus lowest % HPK1 remaining vs DMSO vehicle. In outline:
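Dmax is derived from four-parameter curves of % HPK1 remaining, as 100 minus the lowest value, normalized to DMSO-treated cells with parental Jurkat background subtracted. HiBiT-HPK1 knock-in Jurkat cells got compound for 24 hours (final 10 uM to 0.1 nM, 11 points) before lytic HiBiT luminescence. Cytotoxicity was checked on parallel CellTiter-Glo plates.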

T1 sequence (Q92918 whole entry): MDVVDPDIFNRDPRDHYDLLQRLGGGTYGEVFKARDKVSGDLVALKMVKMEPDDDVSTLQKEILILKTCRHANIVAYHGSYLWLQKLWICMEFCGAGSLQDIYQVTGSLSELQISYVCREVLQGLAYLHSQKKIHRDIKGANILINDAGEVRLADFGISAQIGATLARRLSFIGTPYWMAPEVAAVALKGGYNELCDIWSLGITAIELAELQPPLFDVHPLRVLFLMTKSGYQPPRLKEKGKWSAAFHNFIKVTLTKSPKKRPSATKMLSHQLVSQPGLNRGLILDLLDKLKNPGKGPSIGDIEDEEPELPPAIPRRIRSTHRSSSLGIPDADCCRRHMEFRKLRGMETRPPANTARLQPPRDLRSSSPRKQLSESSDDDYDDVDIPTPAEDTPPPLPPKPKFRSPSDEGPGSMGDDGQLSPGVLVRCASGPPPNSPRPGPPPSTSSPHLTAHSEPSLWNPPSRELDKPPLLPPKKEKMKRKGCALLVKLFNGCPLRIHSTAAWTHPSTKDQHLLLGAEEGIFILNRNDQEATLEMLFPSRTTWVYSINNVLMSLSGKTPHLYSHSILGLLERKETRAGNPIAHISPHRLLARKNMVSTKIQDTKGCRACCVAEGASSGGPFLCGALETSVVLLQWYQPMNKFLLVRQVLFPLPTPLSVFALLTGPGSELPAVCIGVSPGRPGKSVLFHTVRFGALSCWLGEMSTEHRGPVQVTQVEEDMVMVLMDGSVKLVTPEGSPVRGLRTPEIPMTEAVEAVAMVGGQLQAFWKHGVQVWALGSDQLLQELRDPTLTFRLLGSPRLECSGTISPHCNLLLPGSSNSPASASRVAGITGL

Compound `Cc1cc(F)c(Nc2nc(-c3ccc4c(c3)N([C@H]3C[C@@H](N5CCCCC5)C3)C(=O)C43CCN(C(=O)[C@H]4CC[C@H](C(=O)N5CCC(Nc6cccc7c6C(=O)N(C6CCC(=O)NC6=O)C7=O)CC5)CC4)CC3)cc3ncn(C(C)C)c23)cc1C(=O)NC(C)C` (stereo partly drawn) [Example 51, 4-fluoro-2-methyl-5-[(6-{2-oxo-1′-[(R,4R)-4-[4-({2-[2,6-dioxopiperidin-3-yl]-1,3-dioxo-2,3-dihydro-1H-isoindol-4-yl}amino)piperidine-1-carbonyl]cyclohexanecarbonyl]-1-[(1s,3s)-3-(piperidin-1-yl)cyclobutyl]-1,2-dihydrospiro[indole-3,4′-piperidin]-6-yl}-3-(propan-2-yl)-3H-imidazo[4,5-c]pyridin-4-yl)amino]-N-(propan-2-yl)benzamide] displayed a Dmax of 45 to 65%.
The same measure, in the same setting: under `Cc1cc(F)c(Nc2nc(-c3ccc4c(c3)N([C@H]3C[C@@H](N5CCCCC5)C3)C(=O)C43CCN(C(=O)[C@@H]4CCN(C(=O)[C@H]5CC[C@H](Nc6cccc7c6C(=O)N(C6CCC(=O)NC6=O)C7=O)CC5)C4)CC3)cc3ncn(C(C)C)c23)cc1C(=O)NC(C)C` (stereo partly drawn) [Example 52, 4-fluoro-2-methyl-5-[(6-{2-oxo-1′-[(3R)-1-[(1R,4R)-4-({2-[2,6-dioxopiperidin-3-yl]-1,3-dioxo-2,3-dihydro-1H-isoindol-4-yl}amino)cyclohexanecarbonyl]pyrrolidine-3-carbonyl]-1-[(1s,3s)-3-(piperidin-1-yl)cyclobutyl]-1,2-dihydrospiro[indole-3,4′-piperidin]-6-yl}-3-(propan-2-yl)-3H-imidazo[4,5-c]pyridin-4-yl)amino]-N-(propan-2-yl)benzamide] stands 45 to 65%.
`Cc1cc(F)c(Nc2nc(-c3ccc4c(c3)N([C@H]3C[C@@H](N5CCCCC5)C3)C(=O)C43CCN(C(=O)c4cccc(C5CCN(c6cccc7c6C(=O)N(C6CCC(=O)NC6=O)C7=O)CC5)c4)CC3)cc3ncn(C(C)C)c23)cc1C(=O)NC(C)C` (stereo partly drawn) [Example 53, 5-[(6-{1′-[3-(1-{2-[2,6-dioxopiperidin-3-yl]-1,3-dioxo-2,3-dihydro-1H-isoindol-4-yl}piperidin-4-yl)benzoyl]-2-oxo-1-[(1s,3s)-3-(piperidin-1-yl)cyclobutyl]-1,2-dihydrospiro[indole-3,4′-piperidin]-6-yl}-3-(propan-2-yl)-3H-imidazo[4,5-c]pyridin-4-yl)amino]-4-fluoro-2-methyl-N-(propan-2-yl)benzamide]: the “Cellular HPK1 HiBiT: Dmax (%)” value is reported as “B (45%≤B≤65%)”.
Compound `Cc1cc(F)c(Nc2nc(-c3ccc4c(c3)N(C3CC(N5CCCCC5)C3)C(=O)C43CCN(C(=O)[C@@H]4CCN(C(=O)[C@H]5CC[C@H](Oc6cccc7c6C(=O)N(C6CCC(=O)NC6=O)C7=O)CC5)C4)CC3)cc3ncn(C(C)C)c23)cc1C(=O)NC(C)C` (stereo partly drawn) [Example 54, 4-fluoro-2-methyl-5-[(6-{2-oxo-1′-[(3R)-1-[(1R,4R)-4-{[2-(2,6-dioxopiperidin-3-yl)-1,3-dioxo-2,3-dihydro-1H-isoindol-4-yl]oxy}cyclohexanecarbonyl]pyrrolidine-3-carbonyl]-1-[(1s,3s)-3-(piperidin-1-yl)cyclobutyl]-1,2-dihydrospiro[indole-3,4′-piperidin]-6-yl}-3-(propan-2-yl)-3H-imidazo[4,5-c]pyridin-4-yl)amino]-N-(propan-2-yl)benzamide] displayed a Dmax of under 45%.
Same read-out and setting: the same measure for `Cc1cc(F)c(Nc2nc(-c3ccc4c(c3)N([C@H]3C[C@@H](N5CCCCC5)C3)C(=O)C43CCN(C(=O)OC4CCN(C(=O)C5CCN(c6ccc7c(c6)C(=O)N(C6CCC(=O)NC6=O)C7=O)CC5)CC4)CC3)cc3ncn(C(C)C)c23)cc1C(=O)NC(C)C` (stereo partly drawn) [Example 55, 1-(1-{2-[2,6-dioxopiperidin-3-yl]-1,3-dioxoisoindol-5-yl}piperidine-4-carbonyl)piperidin-4-yl 6-(4-{[2-fluoro-5-(isopropylcarbamoyl)-4-methylphenyl]amino}-3-isopropylimidazo[4,5-c]pyridin-6-yl)-2-oxo-1-[(1s,3s)-3-(piperidin-1-yl)cyclobutyl]spiro[indole-3,4′-piperidine]-1′-carboxylate]: over 65%.
Same read-out and setting: under `Cc1cc(F)c(Nc2nc(-c3ccc4c(c3)N([C@H]3C[C@@H](N5CCCCC5)C3)C(=O)C43CCN(C(=O)C[C@@H]4CCN(C(=O)[C@H]5CC[C@H](Nc6cccc7c6C(=O)N(C6CCC(=O)NC6=O)C7=O)CC5)C4)CC3)cc3ncn(C(C)C)c23)cc1C(=O)NC(C)C` (stereo partly drawn) [Example 56, 4-fluoro-2-methyl-5-{[6-(2-oxo-1′-{2-[(3S)-1-[(1R,4R)-4-({2-[2,6-dioxopiperidin-3-yl]-1,3-dioxo-2,3-dihydro-1H-isoindol-4-yl}amino)cyclohexanecarbonyl]pyrrolidin-3-yl]acetyl}-1-[(1s,3s)-3-(piperidin-1-yl)cyclobutyl]-1,2-dihydrospiro[indole-3,4′-piperidin]-6-yl)-3-(propan-2-yl)-3H-imidazo[4,5-c]pyridin-4-yl]amino}-N-(propan-2-yl)benzamide] stands under 45%; under `Cc1cc(F)c(Nc2nc(-c3ccc4c(c3)N([C@H]3C[C@@H](N5CCCCC5)C3)C(=O)C43CCN(C(=O)C[C@H]4CCN(C(=O)[C@H]5CC[C@H](Nc6cccc7c6C(=O)N(C6CCC(=O)NC6=O)C7=O)CC5)C4)CC3)cc3ncn(C(C)C)c23)cc1C(=O)NC(C)C` (stereo partly drawn) [Example 57, 4-fluoro-2-methyl-5-{[6-(2-oxo-1′-{2-[(3R)-1-[(1R,4R)-4-({2-[2,6-dioxopiperidin-3-yl]-1,3-dioxo-2,3-dihydro-1H-isoindol-4-yl}amino)cyclohexanecarbonyl]pyrrolidin-3-yl]acetyl}-1-[(1s,3s)-3-(piperidin-1-yl)cyclobutyl]-1,2-dihydrospiro[indole-3,4′-piperidin]-6-yl)-3-(propan-2-yl)-3H-imidazo[4,5-c]pyridin-4-yl]amino}-N-(propan-2-yl)benzamide], under 45%; under `Cc1cc(F)c(Nc2nc(-c3ccc4c(c3)N([C@H]3C[C@@H](N5CCCCC5)C3)C(=O)C43CCN(C(=O)c4ccc(S(=O)(=O)N5CCN(c6ccc7c(c6)C(=O)N(C6CCC(=O)NC6=O)C7=O)CC5)cc4)CC3)cc3ncn(C(C)C)c23)cc1C(=O)NC(C)C` (stereo partly drawn) [Example 58, 5-[(6-{1′-[4-({4-[2-(2,6-dioxopiperidin-3-yl)-1,3-dioxo-2,3-dihydro-1H-isoindol-5-yl]piperazin-1-yl}sulfonyl)benzoyl]-2-oxo-1-[(1s,3s)-3-(piperidin-1-yl)cyclobutyl]-1,2-dihydrospiro[indole-3,4′-piperidin]-6-yl}-3-(propan-2-yl)-3H-imidazo[4,5-c]pyridin-4-yl)amino]-4-fluoro-2-methyl-N-(propan-2-yl)benzamide], under 45%.
Same read-out and setting: the same measure for `Cc1cc(F)c(Nc2nc(-c3ccc4c(c3)N([C@H]3C[C@@H](N5CCCCC5)C3)C(=O)C43CCN(C(=O)c4ccc(CC5CCN(c6cccc7c6C(=O)N(C6CCC(=O)NC6=O)C7=O)CC5)cc4)CC3)cc3ncn(C(C)C)c23)cc1C(=O)NC(C)C` (stereo partly drawn) [Example 59, 5-[(6-{1′-[4-({1-[2-(2,6-dioxopiperidin-3-yl)-1,3-dioxo-2,3-dihydro-1H-isoindol-4-yl]piperidin-4-yl}Methyl)benzoyl]-2-oxo-1-[(1s,3s)-3-(piperidin-1-yl)cyclobutyl]-1,2-dihydrospiro[indole-3,4′-piperidin]-6-yl}-3-(propan-2-yl)-3H-imidazo[4,5-c]pyridin-4-yl)amino]-4-fluoro-2-methyl-N-(propan-2-yl)benzamide]: 45 to 65%.
